Reference: PubChem BioAssay (NCI)
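Compound exposure: 48 hours, 5 concentrations, 96-well plates. GI50 is the concentration that inhibits growth by half. At the TGI there is no net growth.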

Legend:
Experiment in all cases: DTP human tumour cell line panel, 48 h
[1] = tested on: 786-0 renal
[2] = tested on: A498 renal
[3] = tested on: A549 NSCLC
[4] = tested on: ACHN renal
[5] = tested on: BT-549 breast
[6] = tested on: CAKI-1 renal
[7] = tested on: CCRF-CEM leukemia
[8] = tested on: COLO 205 colon
[9] = tested on: DU-145 prostate
[10] = tested on: EKVX NSCLC
[11] = tested on: HCC-2998 colon
[12] = tested on: HCT-116 colon
[13] = tested on: HCT-15 colon
[14] = tested on: HL-60(TB) leukemia
[15] = tested on: HOP-62 NSCLC
[16] = tested on: HOP-92 NSCLC
[17] = tested on: HS 578T breast
[18] = tested on: HT29 colon
[19] = tested on: IGROV1 ovarian
[20] = tested on: K-562 leukemia
[21] = tested on: KM12 colon
[22] = tested on: LOX IMVI melanoma
[23] = tested on: M14 melanoma
[24] = tested on: MALME-3M melanoma
[25] = tested on: MCF7 breast
[26] = tested on: MDA-MB-231 breast
[27] = tested on: MDA-MB-435
[28] = tested on: MOLT-4 leukemia
[29] = tested on: NCI-H226 lung
[30] = tested on: NCI-H23 lung
[31] = tested on: NCI-H460 lung
[32] = tested on: NCI-H522 lung
[33] = tested on: NCI/ADR-RES ovarian
[34] = tested on: OVCAR-3 ovarian
[35] = tested on: OVCAR-4 ovarian
[36] = tested on: OVCAR-5 ovarian
[37] = tested on: OVCAR-8 ovarian
[38] = tested on: PC-3 prostate
[39] = tested on: RPMI-8226 leukemia
[40] = tested on: RXF 393 renal
[41] = tested on: SF-268 CNS
[42] = tested on: SF-295 CNS
[43] = tested on: SF-539 CNS
[44] = tested on: SK-MEL-2 melanoma
[45] = tested on: SK-MEL-28 melanoma
[46] = tested on: SK-MEL-5 melanoma
[47] = tested on: SK-OV-3 ovarian
[48] = tested on: SN12C renal
[49] = tested on: SNB-19 CNS
[50] = tested on: SNB-75 CNS
[51] = tested on: SR leukemia
[52] = tested on: SW-620 colon
[53] = tested on: T-47D breast
[54] = tested on: TK-10 renal
[55] = tested on: U251 CNS
[56] = tested on: UACC-257 melanoma
[57] = tested on: UACC-62 melanoma
[58] = tested on: UO-31 renal

Q: With `O=[N+]([O-])c1ccc2c(N=Nc3ccc4ccccc4c3O)c(O)cc(S(=O)(=O)O)c2c1` as the compound, how does the TGI [1] read?
A: The TGI was greater than 81.1 µM.

Q: And the TGI [2]?
A: The TGI was greater than 100 µM.

Q: What about the TGI [3] of the same compound?
A: The TGI was greater than 100 µM.

Q: What about the TGI [4] of the same compound?
A: The TGI was 50.3 µM.

Q: And the TGI [5]?
A: The TGI was greater than 100 µM.

Q: What about the TGI [6] of the same compound?
A: The TGI was greater than 80.6 µM.

Q: What about the TGI [7] of the same compound?
A: The TGI was 22 µM.

Q: And the TGI [8]?
A: Its TGI is greater than 82.9 µM.

Q: What about the TGI [9] of the same compound?
A: The TGI was greater than 88.4 µM.

Q: What about the TGI [10] of the same compound?
A: The TGI was greater than 82.1 µM.

Q: What about the TGI [11] of the same compound?
A: Its TGI is greater than 100 µM.

Q: What about the TGI [12] of the same compound?
A: The TGI was greater than 100 µM.

Q: And the TGI [13]?
A: The TGI was greater than 100 µM.

Q: What about the TGI [14] of the same compound?
A: Its TGI is 23.1 µM.

Q: What about the TGI [15] of the same compound?
A: Its TGI is 99.7 µM.

Q: And the TGI [16]?
A: Its TGI is greater than 100 µM.

Q: What about the TGI [17] of the same compound?
A: The TGI was greater than 100 µM.

Q: And the TGI [18]?
A: The TGI was greater than 100 µM.

Q: And the TGI [19]?
A: Its TGI is greater than 61.9 µM.

Q: What about the TGI [20] of the same compound?
A: Its TGI is greater than 95.1 µM.

Q: And the TGI [21]?
A: The TGI was greater than 100 µM.

Q: What about the TGI [22] of the same compound?
A: Its TGI is greater than 90.2 µM.

Q: And the TGI [23]?
A: Its TGI is 32.4 µM.

Q: What about the TGI [24] of the same compound?
A: Its TGI is 85 µM.

Q: What about the TGI [25] of the same compound?
A: Its TGI is greater than 100 µM.

Q: And the TGI [26]?
A: The TGI was greater than 100 µM.

Q: And the TGI [27]?
A: The TGI was greater than 100 µM.

Q: What about the TGI [28] of the same compound?
A: The TGI was greater than 51 µM.

Q: What about the TGI [29] of the same compound?
A: The TGI was 52.5 µM.

Q: What about the TGI [30] of the same compound?
A: The TGI was greater than 93.4 µM.

Q: What about the TGI [31] of the same compound?
A: Its TGI is greater than 100 µM.

Q: What about the TGI [32] of the same compound?
A: Its TGI is greater than 57.3 µM.

Q: What about the TGI [33] of the same compound?
A: Its TGI is greater than 90.3 µM.

Q: What about the TGI [34] of the same compound?
A: The TGI was 99.5 µM.

Q: What about the TGI [35] of the same compound?
A: The TGI was greater than 100 µM.

Q: What about the TGI [36] of the same compound?
A: Its TGI is greater than 100 µM.

Q: What about the TGI [37] of the same compound?
A: The TGI was greater than 93.6 µM.

Q: And the TGI [38]?
A: Its TGI is greater than 100 µM.

Q: And the TGI [39]?
A: Its TGI is 61.5 µM.

Q: What about the TGI [40] of the same compound?
A: Its TGI is greater than 100 µM.

Q: And the TGI [41]?
A: Its TGI is 63.9 µM.

Q: What about the TGI [42] of the same compound?
A: The TGI was greater than 85.7 µM.

Q: And the TGI [43]?
A: The TGI was greater than 28.5 µM.

Q: What about the TGI [44] of the same compound?
A: Its TGI is greater than 100 µM.

Q: And the TGI [45]?
A: Its TGI is greater than 100 µM.

Q: And the TGI [46]?
A: The TGI was 53.6 µM.

Q: What about the TGI [47] of the same compound?
A: Its TGI is greater than 100 µM.

Q: And the TGI [48]?
A: The TGI was greater than 100 µM.

Q: And the TGI [49]?
A: Its TGI is greater than 83.2 µM.

Q: And the TGI [50]?
A: The TGI was greater than 93.6 µM.

Q: And the TGI [51]?
A: The TGI was greater than 69.4 µM.

Q: What about the TGI [52] of the same compound?
A: The TGI was greater than 100 µM.

Q: What about the TGI [53] of the same compound?
A: Its TGI is greater than 100 µM.

Q: And the TGI [54]?
A: Its TGI is greater than 100 µM.

Q: And the TGI [55]?
A: The TGI was greater than 100 µM.

Q: What about the TGI [56] of the same compound?
A: Its TGI is greater than 100 µM.

Q: And the TGI [57]?
A: Its TGI is 71.9 µM.

Q: And the TGI [58]?
A: The TGI was 47.4 µM.

Q: What does the source list for `CCN(CC)CC(O)c1cc(-c2ccc(Cl)cc2)nc2cc(Cl)ccc12` (centres undefined)?
A: GI50 [1]: 1.9 µM; TGI [1]: 3.41 µM; GI50 [2]: 2.95 µM; TGI [2]: 10.1 µM; GI50 [3]: 1.9 µM; TGI [3]: 3.63 µM; GI50 [4]: 1.64 µM; TGI [4]: 3.39 µM; GI50 [5]: 4.75 µM; TGI [5]: 14.8 µM; GI50 [6]: 1.21 µM; TGI [6]: 2.64 µM; GI50 [7]: 2.52 µM; TGI [7]: 5.56 µM; GI50 [8]: 1.65 µM; TGI [8]: 3.34 µM; GI50 [9]: 2.27 µM; TGI [9]: 5.04 µM; GI50 [10]: 1.76 µM; TGI [10]: 8.04 µM; GI50 [11]: 1.67 µM; TGI [11]: 3.1 µM; GI50 [12]: 1.65 µM; TGI [12]: 3.15 µM; GI50 [13]: 3.05 µM; TGI [13]: 9.26 µM; GI50 [14]: 2.02 µM; TGI [14]: 3.74 µM; GI50 [15]: 1.93 µM; TGI [15]: 4.05 µM; GI50 [16]: 1.83 µM; TGI [16]: 7.38 µM; GI50 [17]: 2.51 µM; TGI [17]: 7.32 µM; GI50 [18]: 1.71 µM; TGI [18]: 3.66 µM; GI50 [19]: 0.518 µM; TGI [19]: 2.47 µM; GI50 [20]: 1.75 µM; TGI [20]: 3.55 µM; GI50 [21]: 1.7 µM; TGI [21]: 3.18 µM; GI50 [22]: 1.24 µM; TGI [22]: 2.51 µM; GI50 [23]: 1.83 µM; TGI [23]: 3.44 µM; GI50 [24]: 1.78 µM; TGI [24]: 3.62 µM; GI50 [25]: 1.5 µM; TGI [25]: 2.9 µM; GI50 [26]: 1.4 µM; TGI [26]: 3.9 µM; GI50 [27]: 1.71 µM; TGI [27]: 3.32 µM; GI50 [28]: 1.68 µM; TGI [28]: 3.48 µM; GI50 [29]: 2.21 µM; TGI [29]: 7.15 µM; GI50 [30]: 1.79 µM; TGI [30]: 4.49 µM; GI50 [31]: 1.64 µM; TGI [31]: 3.17 µM; GI50 [32]: 1.62 µM; TGI [32]: 3.14 µM; GI50 [33]: 2.25 µM; TGI [33]: 6.04 µM; GI50 [34]: 1.92 µM; TGI [34]: 4.05 µM; GI50 [35]: 3.3 µM; TGI [35]: 10.6 µM; GI50 [36]: 2.11 µM; TGI [36]: 5.58 µM; GI50 [37]: 1.96 µM; TGI [37]: 4.12 µM; GI50 [38]: 2.08 µM; TGI [38]: 5.98 µM; GI50 [39]: 2.43 µM; TGI [39]: 6.15 µM; GI50 [40]: 2.75 µM; TGI [40]: 7.32 µM; GI50 [41]: 2.69 µM; TGI [41]: 8.06 µM; GI50 [42]: 1.81 µM; TGI [42]: 3.37 µM; GI50 [43]: 2.03 µM; TGI [43]: 4.63 µM; GI50 [44]: 1.92 µM; TGI [44]: 3.63 µM; GI50 [45]: 1.76 µM; TGI [45]: 3.21 µM; GI50 [46]: 1.61 µM; TGI [46]: 2.99 µM; GI50 [47]: 3.44 µM; TGI [47]: 12 µM; GI50 [48]: 2.96 µM; TGI [48]: 12.7 µM; GI50 [49]: 4.34 µM; TGI [49]: 16 µM; GI50 [50]: 1.69 µM; TGI [50]: 7.14 µM; GI50 [51]: 1.69 µM; TGI [51]: 3.52 µM; GI50 [52]: 1.73 µM; TGI [52]: 3.33 µM; GI50 [53]: 2.53 µM; TGI [53]: 7.01 µM; GI50 [54]: 1.65 µM; TGI [54]: 3.09 µM; GI50 [55]: 1.75 µM; TGI [55]: 3.34 µM; GI50 [56]: 1.86 µM; TGI [56]: 3.61 µM; GI50 [57]: 1.62 µM; TGI [57]: 3.1 µM; GI50 [58]: 1.06 µM; TGI [58]: 3.27 µM
